In patent US6565897B2, “Extract of nerium species, pharmaceutical composition thereof and methods for preparation thereof” (Ozelle Pharmaceuticals, Inc., priority 1998, dated 2003):

System: Tumor Necrosis Factor (TNF)
Test: Tumor Necrosis Factor (TNF) production (immune stimulation)
Assay type: cell-based
Settings: at a concentration of 50 mcg/mL
Excerpt: For example, the polysaccharide PS-I is shown to produce 256 Unit/mL of Tumor Necrosis Factor (TNF) at a concentration of 50 mcg/mL while a mixture of PS-II, PS-III and PS-IV is shown to produce 1000 Unit/mL of TNF at a concentration of 3 mcg/mL.

## Poly α (1→4) D-Galacturonic Acid [PS-I]
  Tumor Necrosis Factor (TNF) produced: 256 Unit/mL
